Laboratory results as given in article PMC8512147, “Multifunctional Small Molecules as Potential Anti-Alzheimer’s Disease Agents” (Molecules, 2021).

Experiments:
[1] = Radical scavenging activity, DPPH method; assay type: biochemical; settings: MeOH, 30 min, r.t., mean ± SD of 3 independent experiments
From the text: Commercial ferulic acid (FA) and all the newly synthesized compounds 1a–e were studied for their radical scavenging activity, following the protocol previously reported. The activity of each compound is expressed as EC50 and is related to its interaction with the free stable radical 2,2-diphenyl-1-picrylhydrazyl (DPPH•).
For the physicochemical and biological studies, analytical grade reagents and solvents were supplied by Sigma-Aldrich (St. Louis, MO, USA), Fluka (Buchs, Switzerland) and Acros (Geel, Belgium). They were used as received without any purification. The antioxidant activity assay was performed in a quartz cell of 1 cm path length with a Perkin-Elmer Lambda 35 UV–Vis spectrophotometer equipped with a temperature programmer PTP1+1 Peltier System (T = 25.0 ± 0.1 °C).
Compounds were evaluated for their radical scavenging activity by the Blois method using DPPH (2,2-diphenyl-1-picrylhydrazyl), a stable free-radical. It absorbs in methanol solution at 517–520 nm and it is a scavenger for other radicals converting itself in the reduced form DPPHH. The assay consists of preparing solutions of increasing concentration of each compound starting from a stock solution (2–3 × 10^−4 M), adding to them 2.5 mL DPPH (0.002% in MeOH, 50–100 µM) and the necessary volume of MeOH to reach the final volume 3.5 mL for each sample. The control sample was made up of DPPH and MeOH. Solutions were protected from light at r.t. for 30 min and then absorbance was measured at 517 nm with a Perkin Elmer Lambda 35 UV–Vis spectrophotometer, using methanolic solution as the blank in the other cell. All the studied compounds have good solubility in MeOH, so their solutions could be prepared. The assay was repeated three times for all compounds and the antioxidant activity, expressed as EC50, was calculated by Equation (1). %AA = ((ADPPH − Asample)/ADPPH) × 100,(1)

[2] = Fe^3+ complexation, potentiometric / spectrophotometric titration; assay type: physicochemical; settings: for log β (FemHhLl), species (101) / log β (FemHhLl), species (102): pH-potentiometric (FA), UV–Vis (1a, 1d); for pM (Fe^3+), pM = −log [M]: pH 7.4, CL/CM = 10, CM = 10^−6 M
From the text: (§1) The chelating ability of FA and of selected compounds 1a and 1d was studied by using the same experimental techniques (potentiometry, UV–Vis spectrophotometry) and experimental medium used for the titration of the ligand alone (20% w/w DMSO/water).
(§2) Alterations in the deprotonation profiles of the ligand titration curves due to the presence of the metal ions are evident in Figure 2, since the curves for the M/L systems appear well below that of FA for a > −1 (M = Fe) or a > 0 (M = Cu). This evidence supports the formation of metal complexes with the deprotonated (L^−) and mono-protonated (HL) forms of the ligand, whose stability order (Fe > Cu) follows the expected trend. Equilibrium models obtained from the fitting analysis of the potentiometric curves (M = Fe, Cu) and the UV–Vis spectral data (M = Fe, Cu) are reported in Table 2.
(§3) Both compounds 1a and 1d have similar chelating capacities towards iron and copper, which are also analogous to those of FA.
(§4) As concerns the metal chelation studies, potassium hydrogen phthalate (C8H5KO4, p.a.) was acquired from BDH, whereas dimethylsulfoxide (DMSO, dried, p.a.) and potassium chloride (KCl, p.a.) were supplied by Sigma-Aldrich. Aqueous solutions of metal ions were prepared starting from 1000 ppm standards (Titrisol, Sigma-Aldrich), to obtain solutions FeCl3 0.018 M and CuCl2 0.015 M. The metal content of solutions was evaluated by atomic absorption. Iron stock solution was prepared with an excess of acid chloride to avoid hydrolysis and its concentration in HCl was determined by the usual standard-addition method using 0.1M HCl (Titrisol). The 0.1M HCl solution, used in calibration of the glass electrode and in spectrophotometric titrations, was prepared from a Titrisol ampoule. The titrant was prepared from carbonate free commercial concentrate (Titrisol, KOH 0.1 M ampoules). The KOH solution was standardized by titration with a solution of potassium hydrogen phthalate using Gran’s method and it was rejected when the percentage of carbonate was greater than 0.5% of the total amount of base. The potentiometric studies were performed with an automated potentiometric apparatus controlled by PASAT program and containing a Crison micropH 2002 millivoltmeter, a Crison microBu 2031 burette and a Haake thermostatic bath (T = 25.0 ± 0.1 °C). The spectrophotometric titrations were carried out with a Perkin-Elmer Lambda 35 spectrophotometer.
(§5) Both glass and Ag/AgCl reference electrodes were previously conditioned in different DMSO/H2O mixtures of increasing DMSO % concentration and the response of the glass electrode was evaluated by strong acid–strong base (HCl/KOH) calibrations with the determination of the Nernst parameters by Gran’s method. […] The spectrophotometric measurements were carried out in a 250–450 nm wavelength range at pH ca. 2.5–11.8. Under the stated experimental conditions, the pKw value (14.27) was determined and subsequently used in the computations. The stepwise protonation constants of the ligands, Ki = [HiL]/[Hi-1L][H], and the overall metal complex stability constants, β (MmHhLl) = [MmHhLl]/[M]^m[H]^h[L]^l, were calculated by fitting the pH-potentiometric and spectrophotometric data with, respectively, the Hyperquad 2008 [41] and Psequad programs. The metal hydrolysis model was determined under the defined experimental conditions (I = 0.1 M KCl, 20% w/w DMSO/H2O, T = 25.0 ± 0.1 °C) and the following values of stability constants were included in the fitting of experimental data towards the equilibrium models related to the Fe^3+/L and Cu^2+/L systems: log β (FeH-2) = −6.78, log β (FeH-3) = −10.78; log β (Cu2H-2) = −9.94. The species distribution curves were obtained with the Hyss program.

[3] = Cu^2+ complexation, potentiometric / spectrophotometric titration; assay type: physicochemical; settings: for log β (CumHhLl), species (1–12) / log β (CumHhLl), species (101): UV–Vis (1a, 1d); for pM (Cu^2+), pM = −log [M]: pH 7.4, CL/CM = 10, CM = 10^−6 M
From the text: as §1, §2, §3, §4, §5

[4] = T = 25.0 ± 0.1 °C, I = 0.1 M KCl, 20% w/w DMSO/water
[5] = T = 25.0 ± 0.1 °C, I = 0.1 M KCl, 20% w/w DMSO/water, pH-potentiometric (FA)

| Structure (SMILES) | EC50 [1] [µM] | log β (FemHhLl), species (1–22) [2, 4] | log β (FemHhLl), species (101) [2, 4] | log β (FemHhLl), species (102) [2, 4] | pM (Fe^3+), pM = −log [M] [2] | log β (CumHhLl), species (1–12) [3, 5] | log β (CumHhLl), species (101) [3, 5] | log β (CumHhLl), species (102) ([3]; T = 25.0 ± 0.1 °C, I = 0.1 M KCl, 20% w/w DMSO/water, pH-potentiometric (FA), UV–Vis (1d)) | pM (Cu^2+), pM = −log [M] [3] | melting point [°C] | FeL in the Fe^3+/L system ([2]; pH ca. 2, species distribution) [%] | log β (CumHhLl), species (1–21) ([3]; T = 25.0 ± 0.1 °C, I = 0.1 M KCl, 20% w/w DMSO/water, UV–Vis spectrophotometric data) |
| --- | --- | --- | --- | --- | --- | --- | --- | --- | --- | --- | --- | --- |
| COc1cc(/C=C/C(=O)NOCc2cccc(Cl)c2)ccc1O [Compound 1d, (E)-N-((3-chlorobenzyl)oxy)-3-(4-hydroxy-3-methoxyphenyl)acrylamide] | 33 ± 1 | 8.50(5) | 15.42(7) | 25.43(5) | 18.2 | 2.20(8) | 7.49(7) | 12.14(7) | 7.0 | 47 to 48 | – | – |
| COc1cc(/C=C/C(=O)NOCc2ccccc2OC)ccc1O [Compound 1a, (E)-3-(4-hydroxy-3-methoxyphenyl)-N-((2-methoxybenzyl)oxy)acrylamide] | 34 ± 1 | – | 16.49(3) | 23.69(4) | 17.6 | 1.12(5) | 6.27(7) | – | 6.3 | 58 | 100 | −13.16(7) |
